Source: patent publication US3966718A, “7-β-Acylamino-ceph-3-ems and salts and esters therefor” (Beecham Group Limited, priority 1973, dated 1976)
In brackets after ≈: the same amount, converted by molar mass. Where a name gives a salt, the structure may show the parent alone. Read-outs that look alike come from different tables or passages of the source.

Assays:
Format in all cases: cell-based
B. subtilis = experiment: MIC on (nutrient) agar; details: Bacillus subtilis, read-out: minimum inhibitory concentration (MIC)
Klebsiella aerogenes A = experiment: MIC on nutrient agar; details: read-out: minimum inhibitory concentration (MIC)
β-Haemolytic Strep. CN10 = experiment: MIC on (nutrient) agar; details: read-out: minimum inhibitory concentration (MIC)
Staph. aureus Russell = experiment: MIC on (nutrient) agar; details: Staphylococcus aureus, read-out: minimum inhibitory concentration (MIC)
Salmonella typhi = experiment: MIC on nutrient agar; details: Salmonella enterica, read-out: minimum inhibitory concentration (MIC)
Shigella sonnei = experiment: MIC on nutrient agar; details: read-out: minimum inhibitory concentration (MIC)
Proteus mirabilis C977 = experiment: MIC on nutrient agar; details: Proteus mirabilis C977, nutrient agar; read-out: minimum inhibitory concentration (MIC)
E. coli JT 1 = experiment: MIC on nutrient agar; details: Escherichia coli
Staph. aureus Oxford = experiment: MIC on (nutrient) agar; details: Staphylococcus aureus, read-out: minimum inhibitory concentration (MIC)
Strep. pneumoniae CN33 = experiment: MIC on (nutrient) agar; details: Streptococcus pneumoniae, read-out: minimum inhibitory concentration (MIC)
E. coli NCTC 10418 = experiment: MIC on nutrient agar; details: Escherichia coli, NCTC10418; E. coli NCTC 10418, nutrient agar; read-out: minimum inhibitory concentration (MIC)
[1] = Klebsiella aerogenes A, nutrient agar
[2] = JT1, E. coli JT 1, nutrient agar, read-out: minimum inhibitory concentration (MIC)

| Compound | MIC (B. subtilis; B. subtilis, agar) [µg/mL] | MIC (Klebsiella aerogenes A; Klebsiella aerogenes) [µg/mL] | MIC (β-Haemolytic Strep. CN10; β-Haemolytic Strep. CN10, agar) [µg/mL] | MIC (Staph. aureus Russell; Staph. aureus Russell, agar) [µg/mL] | MIC (Salmonella typhi) [µg/mL] | MIC (Shigella sonnei) [µg/mL] | MIC (Proteus mirabilis C977) [µg/mL] | MIC (E. coli JT 1; JT1, read-out: minimum inhibitory concentration (MIC)) [µg/mL] | MIC (Staph. aureus Oxford) [µg/mL] | MIC (Klebsiella aerogenes A; [1]) [µg/mL] | MIC (E. coli JT 1; [2]) [µg/mL] | MIC (Strep. pneumoniae CN33) [µg/mL] | MIC (E. coli NCTC 10418) [µg/mL] | MIC (B. subtilis) [µg/mL] | MIC (β-Haemolytic Strep. CN10) [µg/mL] | MIC (Staph. aureus Russell) [µg/mL] |
| --- | --- | --- | --- | --- | --- | --- | --- | --- | --- | --- | --- | --- | --- | --- | --- | --- |
| NC(CC(=O)N[C@@H]1C(=O)N2C(C(=O)O)=C(Cc3cccnc3)CS[C@H]12)C1CC=CCC1 (mixture of isomers) [Example 18, 7β-(DL-3-[cyclohex-3-ene]-3-aminopropionamido)-3(3-pyridylmethyl)-3-cephem-4-carboxylic acid di-trifluoroacetic acid salt] | 1.25 | 125 | 0.5 | 1.25 | 125 | 125 | 250 | 125 | 0.5 |  |  |  |  |  |  |  |
| NC(C(=O)N[C@@H]1C(=O)N2C(C(=O)O)=C(Cc3cccnc3)CS[C@H]12)C1CC1 (mixture of isomers) [Example 19, 7β-(DL-α-aminocyclopropylacetamido)-3(3-pyridylmethyl)-3-cephem-4-carboxylic acid di-trifluoroacetic acid salt] | 12.5 |  | 2.5 | 12.5 | 250 | 250 | 500 |  | 5 | 250 | 500 |  |  |  |  |  |
| O=C(Cc1cccs1)N[C@@H]1C(=O)N2C(C(=O)O)=C(Cc3cccnc3)CS[C@H]12 [Example 1, 3-(3-pyridylmethyl)-7β-(2-thienylacetamido)-3-cephem-4-carboxylic acid trifluoroacetate salt] | 0.25 |  | 0.1 | 10 |  |  |  |  | 0.05 |  |  | 0.1 |  |  |  |  |
| O=C(O)C1=C(Cc2cccnc2)CS[C@@H]2[C@H](NC(=O)[C@H](O)c3ccccc3)C(=O)N12 [Example 3, 7β(D-α-hydroxyphenylacetamido)-3(3-pyridylmethyl)-3-cephem-4-carboxylic acid trifluoroacetate salt] | 0.12 |  | 0.25 | 12.5 | 2.5 | 2.5 | 5 |  | 0.25 | 2.5 |  | 0.5 | 2.5 |  |  |  |
| N[C@@H](C(=O)N[C@@H]1C(=O)N2C(C(=O)O)=C(Cc3cccnc3)CS[C@H]12)c1ccccc1 [Example 4, 7β(D-α-aminophenylacetamido)-3(3-pyridylmethyl)-3-cephem-4-carboxylic acid di-trifluoroacetate salt] | 0.25 |  | 0.25 | 2.5 | 1.25 | 2.5 | 5 |  | 0.25 | 2.5 |  | 0.5 | 2.5 |  |  |  |
| C[n+]1cccc(CC2=C(C(=O)O)N3C(=O)[C@@H](NC(=O)[C@H](O)c4ccccc4)[C@H]3SC2)c1 [Example 5, 7β(D-α-hydroxyphenylacetamide)-3(3-pyridylmethyl)-3-cephem-4-carboxylic acid metho-trifluoroacetate] | 0.25 |  | 0.02 | 5 | 50 | 50 | 125 |  | 0.12 | 50 |  | 0.12 | 50 |  |  |  |
| O=C(O)C(F)(F)F.O=C(O)C1=C(Cc2cccnc2)CS[C@@H]2[C@H](NC(=O)C(C(=O)Oc3ccccc3)c3ccccc3)C(=O)N12 (stereo partly drawn) [Example 6, 7β(α-phenoxycarbonylphenylacetamido)-3(3-pyridylmethyl)-3-cephem-4-carboxylic acid trifluoroacetate] |  |  |  | 25 | 125 | 12.5 | 25 |  | 5 |  |  |  | 50 | 12.5 | 12.5 |  |
| N[C@@H](C(=O)N[C@@H]1C(=O)N2C(C(=O)O)=C(Cc3ccccn3)CS[C@H]12)c1ccccc1 [Example 7, 7β(Dα-aminophenylacetamido)-3(2-pyridylmethyl)-3-cephem-4-carboxylic acid di-trifluoroacetate] | 1.25 (≈ 2.94 µM) |  | 1.25 (≈ 2.94 µM) |  | 12.5 (≈ 29.4 µM) | 25 (≈ 58.9 µM) | 125 (≈ 294 µM) |  | 1.25 (≈ 2.94 µM) |  |  |  | 50 (≈ 118 µM) |  |  | 12.5 (≈ 29.4 µM) |
| O=C(O)C1=C(Cc2cccnc2)CS[C@@H]2[C@H](NC(=O)[C@H](NC(=O)N3CCNC3=O)c3ccccc3)C(=O)N12 [Example 8, 7β-[D-2-(1-imidazolidonecarbonylamino)phenylacetamido]-3(3-pyridylmethyl)-3-cephem-4-carboxylic acid trifluoroacetic acid salt] | 1.25 |  | 0.12 | 12.5 | 25 | 25 | 50 |  | 0.25 | 12.5 |  | 0.25 | 25 |  |  |  |
| O=C(COc1ccccc1)N[C@@H]1C(=O)N2C(C(=O)O)=C(Cc3cccnc3)CS[C@H]12 [Example 9, 7β-phenoxyacetamido-3(3-pyridylmethyl)-3-cephem-4-carboxylic acid trifluoroacetic acid salt] | 0.25 |  | 0.12 | 0.12 | 500 | 500 | 125 |  | 0.02 | 500 |  | 0.12 | 500 |  |  |  |
| CCSCC(=O)N[C@@H]1C(=O)N2C(C(=O)O)=C(Cc3cccnc3)CS[C@H]12 [Example 10, 7β-ethylthioacetamido-3(3-pyridylmethyl)-3-cephem-4-carboxylic acid trifluoroacetic acid salt] | 0.5 |  | 0.12 | 1.25 | 50 | 50 | 25 |  | 0.05 | 50 |  | 0.25 | 50 |  |  |  |
| N=C(N)N[C@@H](C(=O)N[C@@H]1C(=O)N2C(C(=O)O)=C(Cc3cccnc3)CS[C@H]12)c1ccccc1 [Example 11, 7β(Dα-guanidinophenylacetamido)-3(3-pyridylmethyl)-3-cephem-4-carboxylic acid di-trifluoroacetic acid salt] | 2.5 |  | 0.1 | 2.5 | > 100 | > 100 | > 100 |  | 0.5 | > 100 |  | 0.1 | > 100 |  |  |  |
| C[n+]1cccc(CC2=C(C(=O)O)N3C(=O)[C@@H](NC(=O)[C@H](N)c4ccccc4)[C@H]3SC2)c1 [Example 12, 7β(Dα-aminophenylacetamido)-3(3-pyridylmethyl)-3-cephem-4-carboxylic acid metho-trifluoroacetate trifluoroacetic acid salt] | 0.5 |  | 0.05 | 12.5 | 50 | 50 | 125 |  | 0.25 | 50 |  | 0.25 | 50 |  |  |  |
| N[C@@H](C(=O)N[C@@H]1C(=O)N2C(C(=O)O)=C(Cc3cccnc3)CS[C@H]12)c1ccc(O)cc1 [Example 13, 7-(2-Amino-2-p-hydroxyphenylacetamido)-4-carboxy-3-(3-pyridylmethyl) ceph-3-em bis-trifluoroacetic acid salt] | 0.25 | 1.25 | 0.12 | 2.5 | 1.25 | 5 | 5 |  | 0.25 |  |  | 0.12 | 5 |  |  |  |
| O=C(O)CSCC(=O)N[C@@H]1C(=O)N2C(C(=O)O)=C(Cc3cccnc3)CS[C@H]12 [Example 14, 4-Carboxy-7-carboxymethylthioacetamido-3-(3-pyridylmethyl)ceph-3-em trifluoroacetic acid salt] | 25 |  | 5 | 12.5 | 50 | 50 | 50 |  | 1.25 | 25 |  | 12.5 | 50 |  |  |  |
| NC(C(=O)N[C@@H]1C(=O)N2C(C(=O)O)=C(Cc3cccnc3)CS[C@H]12)c1cccs1 (stereo partly drawn) [Example 15, 7-β-[(dl)-α-Amino-2-thienylacetamido]-3-(3-pyridylmethyl)-3-cephem-4-carboxylic acid Di-trifluoroacetic acid salt] | 1.25 |  | 0.5 | 5 | 2.5 | 5 | 12.5 |  | 0.5 | 5 | 12.5 |  |  |  |  |  |
| O=C(CSc1ccncc1)N[C@@H]1C(=O)N2C(C(=O)O)=C(Cc3cccnc3)CS[C@H]12 [Example 16, 7β(4-pyridylthioacetamido)-3(3-pyridylmethyl)-3-cephem-4-carboxylic acid di-trifluoroacetic acid salt] | < 0.02 |  | < 0.02 | 1 | 10 | 25 | 100 |  | < 0.02 | 5 |  | < 0.02 | 25 |  |  |  |
